In US11638712B2, “Bis(acetamidophenyl) guanidinophenylethylphosphonates for use in the prevention and/or treatment of PAR-related diseases” (Universiteit Antwerpen, priority 2016, dated 2023):

Columns and labels:
thrombin = molecular target: T1, thrombin (Homo sapiens, UniProt P00734); assay: in vitro serine protease inhibition profile: thrombin; assay type: biochemical
T1 construct: panel of serine proteases: uPA, tPA, thrombin, plasmin, FXIIa

KLK2 = KLK2 (Homo sapiens, UniProt P20151); assay: in vitro serine protease inhibition profile: KLK2; assay type: biochemical
KLK4 = KLK4 (Homo sapiens, UniProt Q9Y5K2); assay: in vitro serine protease inhibition profile: KLK4; assay type: biochemical
HNE = molecular target: T2, HNE (Homo sapiens, UniProt P08246); assay: in vitro serine protease inhibition profile: HNE; assay type: biochemical
T2 sequence (P08246 30-267): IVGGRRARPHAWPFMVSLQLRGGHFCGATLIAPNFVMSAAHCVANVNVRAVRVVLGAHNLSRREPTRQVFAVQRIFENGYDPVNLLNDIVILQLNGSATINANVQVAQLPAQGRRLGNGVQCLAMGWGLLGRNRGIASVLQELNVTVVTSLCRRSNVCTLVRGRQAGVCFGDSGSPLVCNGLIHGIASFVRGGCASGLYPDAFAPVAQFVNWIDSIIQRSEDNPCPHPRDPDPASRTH

ocular tissue damage = assay: rat dry eye model, ocular surface damage by fluorescein staining; assay type: in vivo; conditions: dry eye rats
Experimental: (§1) Female Wistar rats (200-300 g, Janvier, Roubaix, France) were kept under standard pathogen-free conditions. Husbandry conditions: room temperature 20-25° C., humidity 50-60% and a day-night cycle of 12 h light/12 h dark. Food and water were available ad libitum. All in vivo manipulations were approved by the Animal Ethical Committee of the University of Antwerp (2013-67) and are in accordance to the ARRIVE guidelines for the use of animals in ophthalmic and vision research.
To remove the exorbital lacrimal gland, animals were anesthetized with an intraperitoneal injection of 25 mg/kg ketamine (Anesketin®, Eurovet, Bladel, Netherlands) and 2.5 mg/kg xylazine (Rompun®, Bayer, Leverkusen, Germany). Routine manipulations (tear collection, fluorescein staining) were performed after induction with 5% isoflurane (Halocarbon®, New Jersey, USA), followed by a maintenance dosage of 1.5%.
(§2) To remove the gland, a small incision was made beneath the right ear. The lacrimal glands of the left eye were kept intact, leaving each animal with its own individual control and eliminating the need for extra control groups. Progression of dry eye was monitored for 24 days and tear volume measurements and fluorescein staining were performed once a week. Tears were collected twice a week.
Sodium-fluorescein (1%, Sigma-Aldrich, Seelze, Germany) in phosphate buffered saline (PBS, Gibco® by LifeTechnologies Europe, Gent, Belgium) was administered topically to the surface of the eye. To avoid false positives, eyes were rinsed after one minute with PBS and excess fluorescein was removed by placing filter paper in the lateral cantus of the eye. The eye was photographed with a microscopic lens (Photo adapter 1.0 MC 80 DX-Axiovert 25 CA, Carl Zeiss AB, Gottingen, Germany) in a darkened room under cobalt blue light. Using the Oxford fluorescein grading scale, scores from 0 to 5 were given to each eye, depending on ocular staining intensity. Semi-quantitative scoring was done in a blind manner by three independent observers. Evaluation of ocular surface damage was performed every week.
(§3) Tear fluid was obtained twice a week. Tear volume and tissue damage was evaluated once a week. Animals were treated with Restasis® (2×/day), UAMC50, UAMC1162, UAMC1169/vehicle (2×/day) for 3 consecutive weeks. Compounds 1, 2 and 4 were formulated as follows: […]

[1] = system: TNF-α and IL-1α in tear fluid; assay: rat dry eye model, pro-inflammatory cytokines in tear fluid; assay type: in vivo; conditions: dry eye rats
Experimental: as §1, §2
Tear fluid was collected once a week with 10 μl capillaries (Blaubrand® Intramark, Wertheim, Germany) connected with a flexible tube to a syringe. […]
TNF-α and IL-1α concentrations in tear fluid were measured flow cytometrically (FACS calibur, BD Biosciences), using Cytometric Bead Array (CBA) according to the manufacturers protocol (Rat IL-1α and TNF-α CBA flex sets, BD Biosciences, Erembodegem Belgium.
Tear fluid was obtained twice a week. Tear volume and tissue damage was evaluated once a week. […]

[2] = rat dry eye model, aqueous tear production (phenol red thread); assay type: in vivo; conditions: dry eye rats, 2 concentrations
Experimental: as §1, §2
A phenol red thread (Zone Quick®, Menicon Co. Ltd, Nagoya, Japan) was placed in the lateral cantus of the conjunctival fornix for 15 seconds. […] Tear fluid volumes were measured once a week.
as §3

[3] = 5 mM formulation, 2x/day, FIG. 4

Sequence of KLK2 (P20151 25-261, species assumed): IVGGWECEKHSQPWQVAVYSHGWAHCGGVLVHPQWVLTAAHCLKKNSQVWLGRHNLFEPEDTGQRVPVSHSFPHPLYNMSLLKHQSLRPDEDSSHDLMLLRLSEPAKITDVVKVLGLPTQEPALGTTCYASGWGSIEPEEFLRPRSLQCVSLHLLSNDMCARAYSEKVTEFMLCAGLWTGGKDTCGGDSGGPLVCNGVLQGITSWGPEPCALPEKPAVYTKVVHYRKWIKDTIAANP
Sequence of KLK4 (Q9Y5K2 31-254, species assumed): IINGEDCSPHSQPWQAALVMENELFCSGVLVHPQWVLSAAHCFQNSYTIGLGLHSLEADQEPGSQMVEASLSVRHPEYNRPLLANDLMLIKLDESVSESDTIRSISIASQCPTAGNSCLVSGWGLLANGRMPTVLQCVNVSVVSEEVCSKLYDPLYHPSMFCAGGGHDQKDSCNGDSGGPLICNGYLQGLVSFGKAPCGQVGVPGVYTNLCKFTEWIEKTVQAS

SMILES | IC50 (thrombin) [nM] | IC50 (KLK2) [nM] | IC50 (KLK4) [nM] | IC50 (HNE) [nM] | effect on ocular tissue damage (ocular tissue damage; [3]) | tissue damage scores (ocular tissue damage; follow-up experiments, 5 mM and 500 μM, vs untreated, vehicle, Restasis, FIG. 5) | effect on ocular tissue damage (ocular tissue damage; lower dose (500 μM), day 21) | anti-inflammatory effect on IL-1α and TNF-α in tear fluid ([1]; 5 mM) | anti-inflammatory effect on IL-1α and TNF-α in tear fluid ([1]; two concentrations, compared with Restasis, FIGS. 6 and 7) | effect on tear volume [2]
COC(=O)NC(Cc1ccc(NC(=N)N)cc1)P(=O)(Oc1ccccc1)Oc1ccccc1 (stereo not drawn) [Compound 1] | > 2500 | > 2500 | 9 | > 2500 | no effect |  |  |  |  | 
CC(=O)Nc1ccc(OP(=O)(Oc2ccc(NC(C)=O)cc2)C(Cc2ccc(NC(=N)N)cc2)NC(=O)OCc2ccccc2)cc1 (stereo not drawn) [Compound 4] | 257 | 115 | 2 | > 2500 | superior effect on ocular tissue damage | lower tissue damage scores | failed to provide an effect on day 21 | significant anti-inflammatory effect | overall stronger anti-inflammatory effect and faster onset of action effect than Restasis© | no significant effects have been observed on tear volume
